Laboratory results as given in the supplement of paper PMC10307832.

How the values were obtained:
Assay in all cases: relative viability (nuclei count vs DMSO), 5 days (fraction); higher = more cells survive
A-427 = test system: A-427
How it was run: (§1)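 Cells from lung cancer lines were seeded into 1536-well plates and, one day later, dosed by pin tool. Treatments were either a single drug or a fixed dose of an anchor drug with five library-drug doses (not always all listed) in √10 steps. After 5 days, nuclei were stained in a one-step fixation (final 0.05% Triton X-100, 1% formaldehyde, 1 ug/ml Hoechst) and counted on 4× images, and relative viability is the treated-to-vehicle nuclei ratio, as the median of duplicate plates.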

BEN = test system: BEN
How it was run: as §1

H3255 = test system: H3255
How it was run: as §1

HCC-15 = test system: HCC-15
How it was run: as §1

LC-2-ad = test system: LC-2-ad
How it was run: as §1

LCLC-97TM1 = test system: LCLC-97TM1
How it was run: as §1

NCI-H1395 = test system: NCI-H1395
How it was run: as §1

NCI-H1651 = test system: NCI-H1651
How it was run: as §1

NCI-H1755 = test system: NCI-H1755
How it was run: as §1

NCI-H1792 = test system: NCI-H1792
How it was run: as §1

NCI-H1993 = test system: NCI-H1993
How it was run: as §1

NCI-H2009 = test system: NCI-H2009
How it was run: as §1

NCI-H2085 = test system: NCI-H2085
How it was run: as §1

NCI-H23 = test system: NCI-H23
How it was run: as §1

NCI-H520 = test system: NCI-H520
How it was run: as §1

NCI-H647 = test system: NCI-H647
How it was run: as §1

NCI-H650 = test system: NCI-H650
How it was run: as §1

NCI-H661 = test system: NCI-H661
How it was run: as §1

NCI-H727 = test system: NCI-H727
How it was run: as §1

NCI-H838 = test system: NCI-H838
How it was run: as §1

PC-3 [JPC-3] = test system: PC-3 [JPC-3]
How it was run: as §1

RERF-LC-KJ = test system: RERF-LC-KJ
How it was run: as §1

SK-LU-1 = test system: SK-LU-1
How it was run: as §1

SK-MES-1 = test system: SK-MES-1
How it was run: as §1

Nc1cccc2c1CN(C1CCC(=O)NC1=O)C2=O (stereo not given) [Lenalidomide] + C[C@]1(O)C[C@@H](c2nc(-c3ccc4ccc(-c5ccccc5)nc4c3)c3c(N)nccn32)C1 [Linsitinib] (partner 1 µM)
relative viability (A-427; first compound 0.253 µM): 1.12 | relative viability (A-427; first compound 2.53 µM): 1.11 | relative viability (A-427; first compound 8 µM): 1.1 | relative viability (BEN; first compound 0.253 µM): 1.03 | relative viability (BEN; first compound 0.8 µM): 0.861 | relative viability (BEN; first compound 2.53 µM): 1.09 | relative viability (BEN; first compound 8 µM): 0.781 | relative viability (H3255; first compound 0.253 µM): 0.996 | relative viability (H3255; first compound 0.8 µM): 0.957 | relative viability (H3255; first compound 2.53 µM): 1.06 | relative viability (H3255; first compound 8 µM): 0.871 | relative viability (HCC-15; first compound 0.253 µM): 0.91 | relative viability (HCC-15; first compound 2.53 µM): 0.975 | relative viability (HCC-15; first compound 8 µM): 0.895 | relative viability (LC-2-ad; first compound 0.253 µM): 0.837 | relative viability (LC-2-ad; first compound 0.8 µM): 0.926 | relative viability (LC-2-ad; first compound 2.53 µM): 0.862 | relative viability (LC-2-ad; first compound 8 µM): 0.833 | relative viability (LCLC-97TM1; first compound 0.8 µM): 0.218 | relative viability (LCLC-97TM1; first compound 2.53 µM): 0.157 | relative viability (LCLC-97TM1; first compound 8 µM): 0.137 | relative viability (NCI-H1395; first compound 0.253 µM): 0.968 | relative viability (NCI-H1395; first compound 2.53 µM): 1.23 | relative viability (NCI-H1395; first compound 8 µM): 1.03 | relative viability (NCI-H1651; first compound 0.253 µM): 0.995 | relative viability (NCI-H1651; first compound 0.8 µM): 0.968 | relative viability (NCI-H1651; first compound 2.53 µM): 1.18 | relative viability (NCI-H1651; first compound 8 µM): 0.973 | relative viability (NCI-H1755; first compound 0.253 µM): 0.968 | relative viability (NCI-H1755; first compound 0.8 µM): 1.01 | relative viability (NCI-H1755; first compound 2.53 µM): 0.983 | relative viability (NCI-H1755; first compound 8 µM): 0.897 | relative viability (NCI-H1792; first compound 0.253 µM): 0.53 | relative viability (NCI-H1792; first compound 0.8 µM): 0.457 | relative viability (NCI-H1792; first compound 2.53 µM): 0.509 | relative viability (NCI-H1792; first compound 8 µM): 0.402 | relative viability (NCI-H1993; first compound 0.253 µM): 0.708 | relative viability (NCI-H1993; first compound 0.8 µM): 0.706 | relative viability (NCI-H1993; first compound 2.53 µM): 0.73 | relative viability (NCI-H1993; first compound 8 µM): 0.708 | relative viability (NCI-H2009; first compound 0.253 µM): 1.19 | relative viability (NCI-H2009; first compound 0.8 µM): 1.16 | relative viability (NCI-H2009; first compound 2.53 µM): 1.24 | relative viability (NCI-H2009; first compound 8 µM): 1.25 | relative viability (NCI-H2085; first compound 0.253 µM): 0.876 | relative viability (NCI-H2085; first compound 0.8 µM): 0.877 | relative viability (NCI-H2085; first compound 2.53 µM): 1.03 | relative viability (NCI-H2085; first compound 8 µM): 0.933 | relative viability (NCI-H23; first compound 0.253 µM): 0.452 | relative viability (NCI-H23; first compound 0.8 µM): 0.493 | relative viability (NCI-H23; first compound 2.53 µM): 0.688 | relative viability (NCI-H23; first compound 8 µM): 0.45 | relative viability (NCI-H520; first compound 0.253 µM): 0.974 | relative viability (NCI-H520; first compound 0.8 µM): 1.15 | relative viability (NCI-H520; first compound 2.53 µM): 1.12 | relative viability (NCI-H520; first compound 8 µM): 0.96 | relative viability (NCI-H647; first compound 0.253 µM): 1.16 | relative viability (NCI-H647; first compound 0.8 µM): 1.14 | relative viability (NCI-H647; first compound 2.53 µM): 1.32 | relative viability (NCI-H647; first compound 8 µM): 0.932 | relative viability (NCI-H650; first compound 0.253 µM): 0.929 | relative viability (NCI-H650; first compound 2.53 µM): 1 | relative viability (NCI-H650; first compound 8 µM): 0.727 | relative viability (NCI-H661; first compound 0.253 µM): 0.451 | relative viability (NCI-H661; first compound 0.8 µM): 0.526 | relative viability (NCI-H661; first compound 2.53 µM): 0.59 | relative viability (NCI-H661; first compound 8 µM): 0.539 | relative viability (NCI-H727; first compound 0.253 µM): 0.311 | relative viability (NCI-H727; first compound 2.53 µM): 0.308 | relative viability (NCI-H727; first compound 8 µM): 0.288 | relative viability (NCI-H838; first compound 0.253 µM): 1.02 | relative viability (NCI-H838; first compound 0.8 µM): 0.98 | relative viability (NCI-H838; first compound 2.53 µM): 1.13 | relative viability (NCI-H838; first compound 8 µM): 0.968 | relative viability (PC-3 [JPC-3]; first compound 0.253 µM): 0.969 | relative viability (PC-3 [JPC-3]; first compound 0.8 µM): 0.923 | relative viability (PC-3 [JPC-3]; first compound 2.53 µM): 1 | relative viability (PC-3 [JPC-3]; first compound 8 µM): 1.09 | relative viability (RERF-LC-KJ; first compound 0.253 µM): 0.905 | relative viability (RERF-LC-KJ; first compound 0.8 µM): 0.79 | relative viability (RERF-LC-KJ; first compound 2.53 µM): 0.892 | relative viability (RERF-LC-KJ; first compound 8 µM): 0.943 | relative viability (SK-LU-1; first compound 0.253 µM): 1.1 | relative viability (SK-LU-1; first compound 0.8 µM): 1.01 | relative viability (SK-LU-1; first compound 2.53 µM): 1.19 | relative viability (SK-LU-1; first compound 8 µM): 1.16 | relative viability (SK-MES-1; first compound 0.253 µM): 1.05 | relative viability (SK-MES-1; first compound 0.8 µM): 1.03 | relative viability (SK-MES-1; first compound 2.53 µM): 1.13 | relative viability (SK-MES-1; first compound 8 µM): 0.979
